Data from patent US20250099582A1, “TREATMENT OF PATIENTS DIAGNOSED WITH PANCREATIC DUCTAL ADENOCARCINOMA USING MONOCLONAL ANTIBODIES AGAINST THE EPIDERMAL GROWTH FACTOR RECEPTOR (EGFR)” (INNOCIMAB PTE LTD, priority 2015, published 2025).
“Also recorded” adds a separate entry of the source.

What was measured:
PDAC patients = conditions: cited from earlier work
[1] = test system: locally advanced or metastatic pancreatic cancer patients; assay: Randomized clinical trial of gemcitabine plus nimotuzumab versus gemcitabine plus placebo: survival by KRAS status; type: in vivo, human; conditions: for overall survival (OS), Kaplan-Meier, versus placebo-gemcitabine arm / progression-free-survival (PFS), Kaplan-Meier, versus placebo-gemcitabine arm: nimotuzumab 400 mg i.v. once weekly + gemcitabine 1000 mg/m^2 (d1, 8, 15; q28)
Experimental: In this clinical trial patients with previously untreated, unresectable, locally advanced or metastatic pancreatic adenocarcinoma received gemcitabine (1000 mg/m^2/30-min iv once weekly (d1, 8, 15; q28)) and nimotuzumab (400 mg 30-min iv once weekly), or placebo until disease progression or unmanageable toxicity. The primary endpoint in this study was overall survival (OS) in the intention-to-treat (ITT) population. The secondary endpoints included progression free survival (PFS), safety, objective response rate (ORR), and Quality of Life (QoL).
(§1) One hundred and ninety two (192) newly diagnosed patients with locally advanced or metastatic pancreatic cancer were randomized and recruited into 2 arms, on the treatment arm patients were administered administered i.v infusion of nimotuzumab at 400 mg dose once a week until progressive disease or unacceptable toxicity and gemcitabine 1000 mg/m^2 once weekly for 3 weeks, followed by a 1-week rest (d1, 8, 15; q28) and on the control arm patients were administered i.v infusion of placebo once a week until progressive disease or unacceptable toxicity and gemcitabine 1000 mg/m^2 once weekly for 3 weeks, followed by a 1-week rest (d1, 8, 15; q28).
Tumor response was assessed using CT (Computed Tomography) or MRI (Magnetic Resonance Imaging) and statistically analyzed using RECIST (Response Evaluation Criteria in Solid Tumors), which provides guidelines for identifying complete response, partial response, stable disease, or progressive disease based on tumor size (see, e.g., Therasse et al., February 2000, “New Guidelines to Evaluate the Response to Treatment in Solid Tumors,” J. Natl. Cancer Inst. 92 (3): 205-216) and overall survival was assessed by the last patient visit, death or loss of follow up.
Out of 192 patients that were randomized into 2 arms, tumor samples were taken from 101 patients (49 from the control arm and 52 from the treatment arm).
To determine if KRAS status correlates with survival the 101 samples were tested. From the KRAS analysis of the 101 samples, 34 samples were KRAS Wild Type (20 from the control arm and 14 from the treatment arm) and 67 samples has the mutation of the KRAS (29 from the control arm and 38 from the treatment arm).
(§2) As a primary endpoint, overall survival (OS) in the intention-to-treat (ITT) population was evaluated. The OS was assessed by the date of the last visit, death or loss of the follow up. The OS was initially calculated for all population and then a subset analysis was run taking into consideration the KRAS status of each of the patients on each treatment arm. Secondary endpoints included progression free survival (PFS), assessed by the day of the progression or the death, safety, assessed by the incidence of adverse events (AE) or serious adverse events (SAE), objective response rate (ORR), assessed by the number of patients on each treatment arm with Complete Response (CR) and Partial Response (PR) to the treatment ((CR+PR)/N, No. patients in the arm)) and Quality of Life (QoL), assessed using EORTC quality of life questionnaire QLQ-C30 version 2.0 (EORTC, NL).
Progression-free-survival (PFS) is defined as the length of time during and after the treatment of a disease, such as cancer, that a patient lives with the disease without worsening of the symptoms and was measured from date of randomization to the occurrence of progression or death or last date of observation without progression.

[2] = Same clinical trial: safety, serious adverse events (SAEs); type: in vivo, human; conditions: for number of serious adverse events (SAEs) reported in the arm: 93 patients per arm; for patients with serious adverse events (SAEs): of 93 patients in the arm
Experimental: as §1, §2

[3] = patients with KRAS mutated, FIG. 3
[4] = patients with KRAS wild type, FIG. 4

In the case of `C#Cc1cccc(Nc2ncnc3cc(OCCOC)c(OCCOC)cc23)c1` [Erlotinib], the “PDAC patients in whom treatment has shown benefit” value (PDAC patients; Moore et al. J Clin Oncol. 2007) is listed as “about 10%” and the “prolongation of median survival” value (PDAC patients; addition to gemcitabine) is listed as 2 weeks.

For “nimotuzumab-gemcitabine: treatment arm: nimotuzumab 400 mg i.v. once a week plus gemcitabine 1000 mg/m^2 once weekly for 3 weeks, 1-week rest”, the “overall survival (OS), Kaplan-Meier, versus placebo-gemcitabine arm” value [1, 3] was “no difference”, the “progression-free-survival (PFS), Kaplan-Meier, versus placebo-gemcitabine arm” value [1, 3] was “no difference” and the “overall survival (OS), Kaplan-Meier, versus placebo-gemcitabine arm” value [1, 4] was “significant difference in favour of the treatment arm; also recorded: significant improvement”. For the same molecule, the “progression-free-survival (PFS), Kaplan-Meier, versus placebo-gemcitabine arm” value [1, 4] was “significant difference in favour of the treatment arm; also recorded: significant improvement”, the “overall survival (OS), Kaplan-Meier, versus placebo-gemcitabine arm” value ([1]; patients with KRAS wild type, FIG. 4, listed as nimotuzumab and gemcitabine) was “significantly improved” and the “increase of median overall survival compared to control arm (placebo-gemcitabine)” value ([1]; subgroup of KRAS WT) was 6 months. For the same molecule, the “number of serious adverse events (SAEs) reported in the arm” value [2] was 108 SAEs and the “patients with serious adverse events (SAEs)” value [2] was 58.1%.

For “nimotuzumab: anti-EGFR humanized monoclonal antibody produced by the cell line h-R3 deposited as ECACC 951110101”, the “SAE related to study drug: general physical health deterioration, subjects” value ([2]; nimotuzumab arm) was 3.23%, the “SAE related to study drug: nausea, subjects” value ([2]; nimotuzumab arm) was 2.15% and the “SAE related to study drug: thrombocytopenia, subjects” value ([2]; nimotuzumab arm) was 2.15%. For the same molecule, the “SAE related to study drug: vomiting, subjects” value ([2]; nimotuzumab arm) was 2.15%, the “patients with SAEs reported to be related to the study drug” value ([2]; nimotuzumab arm, of 93 patients) was 16.1% and the “number of SAEs reported to be related to the study drug” value ([2]; nimotuzumab arm, of the 108 SAEs) was 26 SAEs.

In the case of `Nc1ccn([C@@H]2O[C@H](CO)[C@@H](O)C2(F)F)c(=O)n1` [placebo-gemcitabine, gemcitabine, reference compound], the “number of serious adverse events (SAEs) reported in the arm” value [2] is reported as 104 SAEs and the “patients with serious adverse events (SAEs)” value [2] is reported as 65.6%.
